The results in this text go back to the supplement of paper PMC12420376.

Assay [1] concerns KURAMOCHI
The assay can be described thus: drug sensitivity score (DSS2) on cancer cell count; higher = more sensitive; extreme values may be limits of the assay. The conditions noted are these: 72 h. The essentials: (§1)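 Ovarian cancer cells were grown alone or in 1:1 direct co-culture with lung or skin fibroblasts. They were plated onto 384-well plates pre-spotted acoustically with 528 approved and investigational compounds at 5 concentrations, then treated for 72 h. Cells were fixed, immunostained for CK8/18 with Hoechst, and imaged at 10× (4 fields) to count cancer cells. A drug sensitivity score (DSS2) was derived in Breeze from 4-parameter logistic fits, with screen quality checked by Z'.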

Assay [2] concerns OVCAR8. The assay is described as above. The conditions noted are these: 72 h. The gist of the method: as §1
Where [3] appears, read: co-cultured fibroblast: BJHTERT.
The mark [4] stands for this setting: co-cultured fibroblast: none (monoculture).

Molecules are shown by their SMILES.

For the compound `Cn1cc(-c2ccc(F)c(C(F)(F)F)c2)nc1C1CCN(c2ncnc3[nH]ncc23)CC1`, the drug sensitivity score in assay [1] (setting [3]) came out at 1 DSS; in assay [1] (co-cultured fibroblast: WI38), 0 DSS; in assay [1] (setting [4]), 0 DSS; in assay [2] (setting [3]), 0 DSS; in assay [2] (co-cultured fibroblast: WI38), 0 DSS; in assay [2] (setting [4]), 0.6 DSS.

In the case of `Cc1cccc(CC(=O)N2CCc3c2ccc(-c2cn(C)c4ncnc(N)c24)c3F)n1`, the drug sensitivity score in assay [1] (setting [3]) amounted to 0.3 DSS; in assay [1] (co-cultured fibroblast: WI38), 0 DSS; in assay [1] (setting [4]) it was 0 DSS; in assay [2] (setting [3]), 1.4 DSS; in assay [2] (co-cultured fibroblast: WI38), 0 DSS; in assay [2] (setting [4]) it was 0 DSS.

For the compound `CNC(=O)c1cc(Oc2ccc(NC(=O)Nc3ccc(Cl)c(C(F)(F)F)c3)cc2)ccn1` [Sorafenib], the drug sensitivity score in assay [1] (setting [3]), in assay [1] (co-cultured fibroblast: WI38), in assay [1] (setting [4]), in assay [2] (setting [3]), in assay [2] (co-cultured fibroblast: WI38) and in assay [2] (setting [4]) was 0 DSS throughout.

In the case of `CC[C@@](C)(Nc1ccnc(-c2c[nH]c3ncccc23)n1)C(=O)NCC(F)(F)F` [Decernotinib], the drug sensitivity score in assay [1] (setting [3]) is 0 DSS; in assay [1] (co-cultured fibroblast: WI38), 3.3 DSS; in assay [1] (setting [4]) it was 0 DSS; in assay [2] (setting [3]), 0 DSS; in assay [2] (co-cultured fibroblast: WI38) it was 0 DSS; in assay [2] (setting [4]), 0 DSS.

On to `Cc1cnc(Nc2ccc(OCCN3CCCC3)cc2)nc1Nc1cccc(S(=O)(=O)NC(C)(C)C)c1` [Fedratinib], for which the drug sensitivity score in assay [1] (setting [3]) was 7.9 DSS; in assay [1] (co-cultured fibroblast: WI38), 3.7 DSS; in assay [1] (setting [4]) it was 2.8 DSS; in assay [2] (setting [3]), 4.9 DSS; in assay [2] (co-cultured fibroblast: WI38), 5.2 DSS; in assay [2] (setting [4]), 7.2 DSS.

In the case of `C[C@H]1C[C@@H]2[C@H]([C@@H](O)C[C@@]3(C)[C@H]2CC[C@]3(O)C(=O)CO)[C@@]2(C)C=CC(=O)C=C12` [Methylprednisolone], the drug sensitivity score was 0 DSS in assay [1] (setting [3]); 0 DSS in assay [1] (co-cultured fibroblast: WI38); 9.8 DSS in assay [1] (setting [4]); 0 DSS in assay [2] (setting [3]); 0 DSS in assay [2] (co-cultured fibroblast: WI38); 8.1 DSS in assay [2] (setting [4]).

As to `Cc1c(C(=O)Nc2ccc(N3C[C@@H](C)O[C@@H](C)C3)nc2)cccc1-c1ccc(OC(F)(F)F)cc1` [Sonidegib], the drug sensitivity score is 0 DSS in assay [1] (setting [3]); 0 DSS in assay [1] (co-cultured fibroblast: WI38); 0 DSS in assay [1] (setting [4]); 0.6 DSS in assay [2] (setting [3]); 0 DSS in assay [2] (co-cultured fibroblast: WI38); 0.6 DSS in assay [2] (setting [4]).

Take `C[C@@H](Oc1cc(-c2cnn(C3CCNCC3)c2)cnc1N)c1c(Cl)ccc(F)c1Cl` [Crizotinib]: the drug sensitivity score in assay [1] (setting [3]) was determined as 0 DSS; in assay [1] (co-cultured fibroblast: WI38), 0 DSS; in assay [1] (setting [4]), 0 DSS; in assay [2] (setting [3]), 0.7 DSS; in assay [2] (co-cultured fibroblast: WI38), 0 DSS; in assay [2] (setting [4]) it was 0 DSS.

Turning to `O=C(c1cc(Cc2n[nH]c(=O)c3ccccc23)ccc1F)N1CCN(C(=O)C2CC2)CC1` [Olaparib], the drug sensitivity score was determined as 4.6 DSS in assay [1] (setting [3]); 7.3 DSS in assay [1] (co-cultured fibroblast: WI38); 11.4 DSS in assay [1] (setting [4]); 12.5 DSS in assay [2] (setting [3]); 6.9 DSS in assay [2] (co-cultured fibroblast: WI38); 9 DSS in assay [2] (setting [4]).

For the compound `Cn1cc(C[C@@H](N)C(=O)O)c2ccccc21` [1-methyl-D-tryptophan], the drug sensitivity score in assay [1] (setting [3]) came to 0 DSS; in assay [1] (co-cultured fibroblast: WI38) it was 0 DSS; in assay [1] (setting [4]) it was 10.3 DSS; in assay [2] (setting [3]), 0 DSS; in assay [2] (co-cultured fibroblast: WI38), 0 DSS; in assay [2] (setting [4]), 0 DSS.

`COc1cc2nccc(Oc3ccc(NC(=O)NC4CC4)c(Cl)c3)c2cc1C(N)=O` [Lenvatinib]: the drug sensitivity score stood at 0.2 DSS in assay [1] (setting [3]); 0 DSS in assay [1] (co-cultured fibroblast: WI38); 0 DSS in assay [1] (setting [4]); 0 DSS in assay [2] (setting [3]); 0 DSS in assay [2] (co-cultured fibroblast: WI38); 0.7 DSS in assay [2] (setting [4]).

Turning to `CCN(CC)CCCC(C)Nc1ccnc2cc(Cl)ccc12` (configuration not stated) [Chloroquine], the drug sensitivity score in assay [2] (setting [3]) was 12.8 DSS; in assay [2] (co-cultured fibroblast: WI38), 6.4 DSS; in assay [2] (setting [4]), 6.4 DSS.

As to `CC[C@H](CO)Nc1nc(NCc2ccccc2)c2ncn(C(C)C)c2n1` [Seliciclib], the drug sensitivity score was determined as 4.9 DSS in assay [2] (setting [3]) and 6.1 DSS in assay [2] (co-cultured fibroblast: WI38).

Consider `Cc1ccc(NC(=O)c2ccc(CN3CCN(C)CC3)cc2)cc1Nc1nccc(-c2cccnc2)n1` [Imatinib], for which the drug sensitivity score worked out at 2 DSS in assay [2] (setting [3]), 7.3 DSS in assay [2] (co-cultured fibroblast: WI38) and 1.4 DSS in assay [2] (setting [4]).

In the case of `Nc1ccn([C@@H]2O[C@H](CO)[C@@H](O)[C@@H]2O)c(=O)n1` [Cytarabine], the drug sensitivity score in assay [2] (setting [3]) was found to be 20.1 DSS; in assay [2] (co-cultured fibroblast: WI38), 18.3 DSS; in assay [2] (setting [4]), 25.2 DSS.
